Where two headings read alike, the source gives them in different places.
Tests used:
cyclin D1 = assay: Cyclin D1 percentage degradation in Calu-1 cells (immunoblotting); format: cell-based; conditions: 16 hours
How it was run: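 Cells were rinsed once in cold PBS and lysed in cold RIPA buffer containing protease and phosphatase inhibitors, with gentle agitation at 4° C. for 30 min. Lysates were spun at 13,000 rpm for 10 min at 4° C., protein was measured by BCA, and samples were boiled in Laemmli buffer at 99° C. for 5 min before SDS-PAGE immunoblotting.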

CDK4 = molecular target: T1, CDK4 (Homo sapiens, UniProt P11802); assay: CDK4 percentage degradation in Calu-1 cells (immunoblotting); format: cell-based; conditions: for inhibition at 0.2 µM: read-out: CDK4 Degradation (200 nM); for inhibition at 10 µM: read-out: CDK4 Degradation (10 μM)
T1 construct: endogenous in cells; host or cells: Calu-1
How it was run: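 Cultured cells were rinsed once in cold PBS and lysed in cold RIPA buffer containing protease and phosphatase inhibitors, with gentle agitation at 4° C. for 30 min. Lysates were centrifuged at 13,000 rpm for 10 min at 4° C., and protein was quantified by BCA. Samples were then separated by SDS-PAGE, detected with ECL, and the CDK4 bands quantified in Image Lab.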

T1 sequence (P11802 2-303 limits assumed): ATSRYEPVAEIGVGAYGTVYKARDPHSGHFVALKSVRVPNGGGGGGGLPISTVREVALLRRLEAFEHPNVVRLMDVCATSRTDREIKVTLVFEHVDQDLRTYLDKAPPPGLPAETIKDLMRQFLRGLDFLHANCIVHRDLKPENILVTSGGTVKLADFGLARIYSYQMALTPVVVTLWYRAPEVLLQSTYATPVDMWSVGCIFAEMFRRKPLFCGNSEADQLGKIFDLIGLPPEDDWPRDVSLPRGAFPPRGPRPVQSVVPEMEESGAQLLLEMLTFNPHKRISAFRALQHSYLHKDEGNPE
T1 sequence (P24385 whole entry partner): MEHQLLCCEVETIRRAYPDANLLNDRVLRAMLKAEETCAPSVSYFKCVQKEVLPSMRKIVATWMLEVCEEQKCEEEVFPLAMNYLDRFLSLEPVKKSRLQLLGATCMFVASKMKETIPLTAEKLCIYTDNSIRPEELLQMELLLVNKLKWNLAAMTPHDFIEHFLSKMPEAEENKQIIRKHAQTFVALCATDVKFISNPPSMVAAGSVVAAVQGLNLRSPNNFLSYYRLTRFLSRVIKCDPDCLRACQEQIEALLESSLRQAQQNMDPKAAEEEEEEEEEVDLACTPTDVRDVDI
T1 sequence (Q16531 2-1140 limits assumed, further chain): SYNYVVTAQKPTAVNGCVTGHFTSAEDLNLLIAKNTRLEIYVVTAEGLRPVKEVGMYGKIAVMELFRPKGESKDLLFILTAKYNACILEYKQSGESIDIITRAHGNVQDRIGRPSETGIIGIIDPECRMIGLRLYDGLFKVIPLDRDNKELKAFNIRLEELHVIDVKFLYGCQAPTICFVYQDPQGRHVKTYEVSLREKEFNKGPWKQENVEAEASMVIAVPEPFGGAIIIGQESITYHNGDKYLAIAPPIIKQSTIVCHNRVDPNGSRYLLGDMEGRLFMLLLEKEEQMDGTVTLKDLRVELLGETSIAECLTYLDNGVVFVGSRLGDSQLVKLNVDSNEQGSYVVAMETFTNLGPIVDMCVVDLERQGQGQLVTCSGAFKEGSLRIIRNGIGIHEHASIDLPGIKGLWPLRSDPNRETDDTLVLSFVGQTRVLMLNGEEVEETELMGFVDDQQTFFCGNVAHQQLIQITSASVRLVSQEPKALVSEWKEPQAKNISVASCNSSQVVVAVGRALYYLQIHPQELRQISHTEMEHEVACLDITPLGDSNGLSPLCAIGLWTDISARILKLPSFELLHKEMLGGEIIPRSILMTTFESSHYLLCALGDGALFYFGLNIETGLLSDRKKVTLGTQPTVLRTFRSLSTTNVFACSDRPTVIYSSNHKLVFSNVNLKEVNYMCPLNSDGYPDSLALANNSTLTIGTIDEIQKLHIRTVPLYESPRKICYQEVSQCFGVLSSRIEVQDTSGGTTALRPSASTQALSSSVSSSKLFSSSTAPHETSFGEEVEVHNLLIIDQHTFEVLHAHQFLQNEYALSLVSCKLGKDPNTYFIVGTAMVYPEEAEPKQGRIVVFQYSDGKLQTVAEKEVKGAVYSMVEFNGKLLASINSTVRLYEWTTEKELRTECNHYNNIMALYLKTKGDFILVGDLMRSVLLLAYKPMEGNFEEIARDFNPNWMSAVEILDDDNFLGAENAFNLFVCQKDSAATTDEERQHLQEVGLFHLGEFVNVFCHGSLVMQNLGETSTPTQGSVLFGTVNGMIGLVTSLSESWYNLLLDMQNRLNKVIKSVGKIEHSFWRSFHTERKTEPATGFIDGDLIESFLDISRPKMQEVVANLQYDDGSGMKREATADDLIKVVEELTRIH

SMILES | CyclinD1 Degradation (200 nM) (cyclin D1) | inhibition at 0.2 µM (CDK4; Calu-1 cells, 200 nM, 16 hours) | CyclinD1 Degradation (10 μM) (cyclin D1) | inhibition at 10 µM (CDK4; Calu-1 cells, 16 hours) | inhibition at 0.2 µM (CDK4; Calu-1, 16 h)
CC(=O)c1c(C)c2cnc(Nc3ccc(N4CCN(CC(=O)NCCOCCOCCOCCOCCOCCNc5ccc(CNc6nc(C)c(C)s6)c(C)c5)CC4)cn3)nc2n(C2CCCC2)c1=O [CPD-166, 2-(4-(6-((6-Acetyl-8-cyclopentyl-5-methyl-7-oxo-7,8-dihydropyrido[2,3-d]pyrimidin-2-yl)amino)pyridin-3-yl)piperazin-1-yl)-N-(17-((4-(((4,5-dimethylthiazol-2-yl)amino)methyl)-3-methylphenyl)amino)-3,6,9,12,15-pentaoxaheptadecyl)acetamide] | B (protein percentage degradation <80%, and >=50%) | 30 to 50% | – | – | –
CCCCNc1ccc(NC(=O)CCOCCOCCNC(=O)CN2CCN(c3ccc(Nc4ncc5c(C)c(C(C)=O)c(=O)n(C6CCCC6)c5n4)nc3)CC2)c(C(=O)Nc2nc(C)c(C)s2)c1 [CPD-148, 2-(3-(2-(2-(2-(4-(6-((6-Acetyl-8-cyclopentyl-5-methyl-7-oxo-7,8-dihydropyrido[2,3-d]pyrimidin-2-yl)amino)pyridin-3-yl)piperazin-1-yl)acetamido)ethoxy)ethoxy)propanamido)-5-(butylamino)-N-(4,5-dimethylthiazol-2-yl)benzamide] | D (protein percentage degradation <30%) | < 30% | – | – | –
Cc1nc(NC(=O)c2ccccc2NC(=O)CCOCCNC(=O)CN2CCN(Cc3ccc(Nc4ncc(F)c(-c5cc(F)c6nc(C)n(C(C)C)c6c5)n4)nc3)CC2)sc1C [CPD-280, N-(4,5-Dimethylthiazol-2-yl)-2-(3-(2-(2-(4-((6-((5-fluoro-4-(4-fluoro-1-isopropyl-2-methyl-1H-benzo[d]imidazol-6-yl)pyrimidin-2-yl)amino)pyridin-3-yl)methyl)piperazin-1-yl)acetamido)ethoxy)propanamido)benzamide] | – | – | D (protein percentage degradation < 30%) | < 30% | –
CC(=O)c1c(C)c2cnc(Nc3ccc(N4CCN(CC(=O)NCCOCCOCCC(=O)Nc5ccccc5C(=O)Nc5ccc(C)c(C6CC6)n5)CC4)cn3)nc2n(C2CCCC2)c1=O [CPD-270, 2-(3-(2-(2-(2-(4-(6-((6-Acetyl-8-cyclopentyl-5-methyl-7-oxo-7,8-dihydropyrido[2,3-d]pyrimidin-2-yl)amino)pyridin-3-yl)piperazin-1-yl)acetamido)ethoxy)ethoxy)propanamido)-N-(6-cyclopropyl-5-methylpyridin-2-yl)benzamide] | A (protein percentage degradation >=80%) | 50 to 80% | – | – | –
CC(=O)c1c(C)c2cnc(Nc3ccc(N4CCN(CC(=O)NCCOCCOCCNc5ccc(C)c(C(=O)Nc6nc(C)c(C)s6)c5)CC4)cn3)nc2n(C2CCCC2)c1=O [CPD-089, 5-((2-(2-(2-(2-(4-(6-((6-Acetyl-8-cyclopentyl-5-methyl-7-oxo-7,8-dihydropyrido[2,3-d]pyrimidin-2-yl)amino)pyridin-3-yl)piperazin-1-yl)acetamido)ethoxy)ethoxy)ethyl)amino)-N-(4,5-dimethylthiazol-2-yl)-2-methylbenzamide] | B (protein percentage degradation <80%, and >=50%) | 50 to 80% | – | – | –
CC(=O)c1c(C)c2cnc(Nc3ccc(N4CCN(CC(=O)NCCCCNc5cc(C)ccc5C(=O)Nc5ccc(N(C)C)nn5)CC4)cn3)nc2n(C2CCCC2)c1=O [CPD-375, 2-((4-(2-(4-(6-((6-Acetyl-8-cyclopentyl-5-methyl-7-oxo-7,8-dihydropyrido[2,3-d]pyrimidin-2-yl)amino)pyridin-3-yl)piperazin-1-yl)acetamido)butyl)amino)-N-(6-(dimethylamino)pyridazin-3-yl)-4-methylbenzamide] | A (protein percentage degradation >=80%) | 50 to 80% | – | – | –
CC(=O)c1c(C)c2cnc(Nc3ccc(N4CCN(CCNCCOCCOCCC(=O)Nc5ccccc5C(=O)Nc5nc(C)c(C)s5)CC4)cn3)nc2n(C2CCCC2)c1=O [CPD-187, 2-(3-(2-(2-((2-(4-(6-((6-Acetyl-8-cyclopentyl-5-methyl-7-oxo-7,8-dihydropyrido[2,3-d]pyrimidin-2-yl)amino)pyridin-3-yl)piperazin-1-yl)ethyl)amino)ethoxy)ethoxy)propanamido)-N-(4,5-dimethylthiazol-2-yl)benzamide] | D (protein percentage degradation <30%) | – | – | – | < 30%
CC(=O)c1c(C)c2cnc(Nc3ccc(N4CCN(CC(=O)NCCOCCOCCC(=O)Nc5ccccc5C(=O)Nc5cc(C(F)(F)F)n(C)n5)CC4)cn3)nc2n(C2CCCC2)c1=O [CPD-069, 2-(3-(2-(2-(2-(4-(6-((6-Acetyl-8-cyclopentyl-5-methyl-7-oxo-7,8-dihydropyrido[2,3-d]pyrimidin-2-yl)amino)pyridin-3-yl)piperazin-1-yl)acetamido)ethoxy)ethoxy)propanamido)-N-(1-methyl-5-(trifluoromethyl)-1H-pyrazol-3-yl)benzamide] | D (protein percentage degradation <30%) | < 30% | – | – | –
CC(=O)c1c(C)c2cnc(Nc3ccc(N4CCN(CC(=O)NCCOCCOCCOCCOCCC(=O)Nc5ccccc5C(=O)Nc5nc(C)c(C)s5)CC4)cn3)nc2n(C2CCCC2)c1=O [CPD-170, 2-(1-(4-(6-((6-Acetyl-8-cyclopentyl-5-methyl-7-oxo-7,8-dihydropyrido[2,3-d]pyrimidin-2-yl)amino)pyridin-3-yl)piperazin-1-yl)-2-oxo-6,9,12,15-tetraoxa-3-azaoctadecan-18-amido)-N-(4,5-dimethylthiazol-2-yl)benzamide] | A (protein percentage degradation >=80%) | 50 to 80% | – | – | –
CC(=O)c1c(C)c2cnc(Nc3ccc(N4CCN(C(=O)CCNc5ccc(C)c(C(=O)Nc6nc(C)c(C)s6)c5)CC4)cn3)nc2n(C2CCCC2)c1=O [CPD-091, 5-((3-(4-(6-((6-Acetyl-8-cyclopentyl-5-methyl-7-oxo-7,8-dihydropyrido[2,3-d]pyrimidin-2-yl)amino)pyridin-3-yl)piperazin-1-yl)-3-oxopropyl)amino)-N-(4,5-dimethylthiazol-2-yl)-2-methylbenzamide] | D (protein percentage degradation <30%) | – | – | – | < 30%
Cc1nc(NC(=O)c2ccccc2NC(=O)CCCCNC(=O)CN2CCN(c3ccc(Nc4ncc5cc6n(c5n4)C4(CCCCC4)CNC6=O)nc3)CC2)sc1C [CPD-317, N-(4,5-Dimethylthiazol-2-yl)-2-(5-(2-(4-(6-((6′-oxo-7′,8′-dihydro-6′H-spiro[cyclohexane-1,9′-pyrazino[1′,2′:1,5]pyrrolo[2,3-d]pyrimidin]-2′-yl)amino)pyridin-3-yl)piperazin-1-yl)acetamido)pentanamido)benzamide] | – | – | A (protein percentage degradation >= 80%) | 50 to 80% | –
CC(=O)c1c(C)c2cnc(Nc3ccc(N4CCN(C(=O)CCOCCOCCOCCOCCOCCNc5cccc(C(=O)Nc6nc(C)c(C)s6)c5C)CC4)cn3)nc2n(C2CCCC2)c1=O [CPD-126, 3-((18-(4-(6-((6-Acetyl-8-cyclopentyl-5-methyl-7-oxo-7,8-dihydropyrido[2,3-d]pyrimidin-2-yl)amino)pyridin-3-yl)piperazin-1-yl)-18-oxo-3,6,9,12,15-pentaoxaoctadecyl)amino)-N-(4,5-dimethylthiazol-2-yl)-2-methylbenzamide] | B (protein percentage degradation <80%, and >=50%) | – | – | – | 50 to 80%
CC(=O)c1c(C)c2cnc(Nc3ccc(N4CCN(CC(=O)NCCCCCCCNc5cccc(C(=O)Nc6ccc(C)nc6)c5C)CC4)cn3)nc2n(C2CCCC2)c1=O [CPD-328, 3-((7-(2-(4-(6-((6-Acetyl-8-cyclopentyl-5-methyl-7-oxo-7,8-dihydropyrido[2,3-d]pyrimidin-2-yl)amino)pyridin-3-yl)piperazin-1-yl)acetamido)heptyl)amino)-2-methyl-N-(6-methylpyridin-3-yl)benzamide] | D (protein percentage degradation <30%) | < 30% | – | – | –
Cc1nc(NC(=O)c2ccccc2NC(=O)CCCNC(=O)CN2CCN(c3ccc(Nc4ncc5cc6n(c5n4)C4(CCCCC4)CNC6=O)nc3)CC2)sc1C [CPD-316, N-(4,5-Dimethylthiazol-2-yl)-2-(4-(2-(4-(6-((6′-oxo-7′,8′-dihydro-6′H-spiro[cyclohexane-1,9′-pyrazino[1′,2′:1,5]pyrrolo[2,3-d]pyrimidin]-2′-yl)amino)pyridin-3-yl)piperazin-1-yl)acetamido)butanamido)benzamide] | – | – | D (protein percentage degradation < 30%) | < 30% | –
CC(=O)c1c(C)c2cnc(Nc3ccc(N4CCN(CC(=O)NCCCCCNc5cc(C)ccc5C(=O)Nc5ccc(N(C)C)nn5)CC4)cn3)nc2n(C2CCCC2)c1=O [CPD-373, 2-((5-(2-(4-(6-((6-Acetyl-8-cyclopentyl-5-methyl-7-oxo-7,8-dihydropyrido[2,3-d]pyrimidin-2-yl)amino)pyridin-3-yl)piperazin-1-yl)acetamido)pentyl)amino)-N-(6-(dimethylamino)pyridazin-3-yl)-4-methylbenzamide] | A (protein percentage degradation >=80%) | 50 to 80% | – | – | –
CC(=O)c1c(C)c2cnc(Nc3ccc(N4CCN(CC(=O)NCCOCCOCCC(=O)Nc5ccccc5C(=O)Nc5cc(C)[nH]n5)CC4)cn3)nc2n(C2CCCC2)c1=O [CPD-074, 2-(3-(2-(2-(2-(4-(6-((6-Acetyl-8-cyclopentyl-5-methyl-7-oxo-7,8-dihydropyrido[2,3-d]pyrimidin-2-yl)amino)pyridin-3-yl)piperazin-1-yl)acetamido)ethoxy)ethoxy)propanamido)-N-(5-methyl-1H-pyrazol-3-yl)benzamide] | B (protein percentage degradation <80%, and >=50%) | 50 to 80% | – | – | –
